Results: patent EP4741389A1, “KAT6 INHIBITOR” (Shanghai Qilu Pharmaceutical Research and Development …, priority 2023, dated 2025)

System: human breast cancer ZR-75-1 cell xenografts
Assay: In vivo efficacy study in BALB/c nude mouse model with subcutaneous ZR-75-1 xenografts
Settings: for T/C / TGI / Tumor Volume: 0.3 mg/kg; for T/C / TGI: based on tumor volume on day 21 post-administration; for Tumor Volume: day 21 post-administration, female BALB/c nude mice, 7 per group; for anti-tumor effects: ZR-75-1 xenograft model, tumor growth curves FIG. 2, result in words
Excerpt: IV. In vivo efficacy study of test drug Compound 2, Compound 5-P2, Compound 3, and Compound A in a BALB/c nude mouse model with subcutaneously implanted human breast cancer ZR-75-1 cell xenografts
The objective of this experiment is to evaluate the in vivo efficacy of the test drug Compound 2, Compound 5-P2, Compound 3, and Compound A in a BALB/c nude mouse model with subcutaneously implanted human breast cancer ZR-75-1 cell xenografts.
• Species: Mouse; • Strain: BALB/c nude mice; • Age and weight: 6-8 weeks old, weighing 19-26 grams; • Gender: Female; • Supplier: GemPharmatech Co., Ltd.; • Compound source: Compound A: [drawing 190] prepared with reference to patent CN114364672A.
Human breast cancer ZR-75-1 (ATCC, CRL-1500) cells were cultured in vitro as adherent cultures. The culture conditions were: 1640 medium supplemented with 10 vol% FBS, 100 U/mL penicillin, and 100 µg/mL streptomycin, incubated in a 37°C, 5% CO2 cell culture incubator. Routine passaging was performed twice a week. When cell confluence reached 80%-90% and the cell number met the requirements, cells were harvested, counted, and inoculated.
Three days before cell implantation, a 17β-estrogen pellet (0.36 mg) was implanted into the left dorsal side of each mouse. Starting one week after pellet implantation, animals were urinated 2-3 times per week. If necessary, animals were urinated daily.
A mixture containing 10×10^6 ZR-75-1 cells in 100 µL PBS and 100 µL Matrigel (final volume was 200 µL) was subcutaneously implanted into the right dorsal side (upper side) of each mouse. On day 18 after cell implantation, when the average tumor volume reached 138 mm^3, grouping and administration were initiated. Mice with tumor volumes ranging from 100 to 212 mm^3 were selected for the study. Mice were randomly assigned to groups based on body weight and tumor volume, with 7 mice per group. The day of grouping was designated as PG-D0, and administration for all groups started from PG-D0.
The experimental index is to investigate whether tumor growth is inhibited, delayed, or cured. Tumor diameters were measured three times per week using a vernier caliper. Tumor volume was calculated using the formula: V = 0.5a × b^2, where a and b represent the major and minor diameters of the tumor, respectively.
The anti-tumor efficacy of the compounds was evaluated using TGI (%) or the relative tumor proliferation rate T/C (%). TGI (%), reflects the tumor growth inhibition rate. TGI (%) was calculated as: TGI (%) = [1 - (Mean tumor volume of a treatment group at the end of administration - Mean tumor volume of the same treatment group at the start of administration) / (Mean tumor volume of the vehicle control group at the end of treatment - Mean tumor volume of the vehicle control group at the start of treatment)] × 100%.
Relative Tumor Proliferation Rate T/C (%): The calculation formula is as follows: T/C% = TRTV / CRTV ×100 % (TRTV: RTV of the treatment group; CRTV: RTV of the negative control group). The relative tumor volume (RTV) was calculated based on tumor measurement results using the formula RTV = Vt /V0, where V0 is the tumor volume of each mouse measured at the start of grouping and administration (i.e., d0), and Vt is the tumor volume of each mouse at a specific measurement time. The mean value for each group was then calculated. V0 and Vt correspond to tumor volume data from the same mouse.

Row | Compound | T/C [%] | TGI [%] | Tumor Volume [mm^3] | anti-tumor effects
1 | COc1ccc2c(c1S(=O)(=O)Nc1noc3cc(Cn4cccn4)cc(OC)c13)OC[C@@H]1C[C@H]21 [Compound 5-P2, (1aR,7bS)-N-(6-((1H-Pyrazol-1-yl)methyl)-4-methoxybenzo[d]isoxazol-3-yl)-5-methoxy-1,1a,2,7b-tetrahydrocyclopropa[c]chromene-4-sulfonamide] | 12.10 | 105.10 | 102 ± 14 | more significant anti-tumor effects compared to Compound A
2 | COc1ccc2c(c1S(=O)(=O)Nc1noc3cc(Cn4cccn4)cc(OC)c13)OCCCO2 [Compound 2, N-(6-((1H-Pyrazol-1-yl)methyl)-4-methoxybenzo[d]isoxazol-3-yl)-7-methoxy-3,4-dihyd ro-2H-benzo[b][1,4]dioxepine-6-sulfonamide] | 20.83 | 93.97 | 182 ± 39 | more significant anti-tumor effects compared to Compound A
